The numbers were not newly measured in US20220105100A1, “SAFE BRINZOLAMIDE AND BRIMONIDINE COMPOSITIONS WITH ENHANCED BENZALKONIUM CHLORIDE CONTENT” (Somerset Therapeutics, LLC, priority 2020, published 2022), which cites them from elsewhere.

For the series the following is noted: laboratory, experimental, and clinical studies.

In the case of benzalkonium chloride, the ophthalmological side effects result was “causing tear film instability, loss of goblet cells, conjunctival squamous metaplasia and apoptosis, disruption of the conical epithelium barrier, and damage to deeper ocular tissues”.
